From US20180110711A1, “METHOD OF ENHANCING HAIR GROWTH” (Allergan, Inc., priority 2011, published 2018)

How the values were obtained:
[1] = tested on: mouse model of hair growth; assay: Mouse model of hair growth, Study 10-06 (Test Two); assay type: in vivo
Description: FIGS. 6 through 8 show the results of a separate testing (Test Two) of synergistic composition of the invention in the same mouse model of hair growth, with FIG. 6 being the Vehicle, FIG. 7 being 0.03% Bimatoprost, alone, and FIG. 8 being the synergistic composition, i.e. 0.03% Bimatoprost and 5% Rogaine (minoxidil).

[2] = tested on: mouse model for hair growth; assay: Mouse model for hair growth, Study 10-04 (Test One); assay type: in vivo; details: compared with vehicle or single agents
Description: A comparison of topical compositions comprising bimatoprost or minoxidil, alone, and the combination of bimatoprost and minoxidil, in a single composition, with the vehicle, for onset of hair growth and full hair growth, in a mouse model for hair growth, gave the results summarized in Table 1, below, and FIG. 5.

`CCNC(=O)CCC/C=C\C[C@@H]1[C@@H](/C=C/[C@@H](O)CCc2ccccc2)[C@H](O)C[C@@H]1O` [BIMATOPROST 0.03%, cyclopentane N-ethyl heptanamide-5-cis-2-(3α-hydroxy-5-phenyl-1-trans-pentenyl)-3,5-dihydroxy, [1α,2α,3α,5α]] was tested, and the “full hair growth (in words, comparison)” value ([1]; compared with vehicle) was “did not obtain the result of full hair growth faster then the vehicle”, the “onset of hair growth (in words, comparison)” value (“onset of hair growth” for short) ([1]; compared with vehicle or bimatoprost alone) was “faster onset of hair growth” and the “full hair growth (in words, comparison)” value [2] was “did not obtain the result of full hair growth faster then the vehicle”. For the same compound, the “onset of hair growth” value [2] was “faster onset of hair growth”.
With `Nc1cc(N2CCCCC2)nc(N)[n+]1[O-]` [MINOXIDIL 5%, minoxidil] the “full hair growth (in words, comparison)” value [2] was “did not obtain the result of full hair growth faster then the vehicle” and the “onset of hair growth” value [2] was “faster onset of hair growth”.
